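In this assay, cells in 96-well plates receive the compound at five concentrations for 48 hours. Endpoints are linearly interpolated between the surrounding concentrations. The concentration for 50% growth inhibition is given as GI50.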 Calls of active or inactive are those of the source. Cut-off read from the data, not from the text of the source: active = GI50 up to about 1.1 µM and inactive = higher.
Columns and labels:
Assay in all cases: NCI anticancer screen, dose series, 48 h
[1] = system: MDA-MB-231
[2] = system: EKVX
[3] = system: COLO 205
[4] = system: OVCAR-8
[5] = system: NCI-H226
[6] = system: NCI-H522
[7] = system: CCRF-CEM
[8] = system: HOP-62
[9] = system: RXF 393
[10] = system: SN12C
[11] = system: BT-549
[12] = system: HOP-92
[13] = system: UACC-257
[14] = system: MDA-MB-435
[15] = system: Malme-3M
[16] = system: MOLT-4
[17] = system: SW-620
[18] = system: HCT-15
[19] = system: HL-60

Structure (SMILES) | GI50 [1] | GI50 [2] | GI50 [3] | GI50 [4] | GI50 [5] | GI50 [6] | GI50 [7] | GI50 [8] | GI50 [9] | GI50 [10] | GI50 [11] | GI50 [12] | GI50 [13] | GI50 [14] | GI50 [15] | GI50 [16] | GI50 [17] | GI50 [18] | GI50 [19]
COc1ccc(C(=O)/C=C/c2ccc(OCC#N)cc2)cc1OC | 13.8 µM (inactive) | 14.9 µM (inactive) | 11.9 µM (inactive) | 28 µM (inactive) | 19.5 µM (inactive) | 16.8 µM (inactive) | 3.21 µM (inactive) | 15.5 µM (inactive) | 13.2 µM (inactive) | 16.4 µM (inactive) | 15.5 µM (inactive) | 22.6 µM (inactive) | > 10 µM (inactive) | 17.5 µM (inactive) | 20.9 µM (inactive) | 10.3 µM (inactive) | 7.16 µM (inactive) | 20 µM | 
O=C1NC(=O)C(C(c2ccc([N+](=O)[O-])cc2)C2C(=O)NC(=O)NC2=O)C(=O)N1 | > 100 µM (inactive) |  | > 100 µM (inactive) | > 100 µM (inactive) | > 100 µM (inactive) | > 100 µM (inactive) | 62.1 µM (inactive) | > 100 µM (inactive) | > 100 µM (inactive) | > 100 µM (inactive) | > 100 µM (inactive) | > 100 µM (inactive) | > 100 µM (inactive) | > 100 µM (inactive) | 55.8 µM (inactive) | > 100 µM (inactive) | > 100 µM (inactive) | > 100 µM | > 100 µM (inactive)
CCN(CC)CCNC(=O)c1ccc(I)cc1 | > 100 µM (inactive) | > 100 µM (inactive) | > 100 µM (inactive) | > 100 µM (inactive) | > 100 µM (inactive) | > 100 µM (inactive) | 89.5 µM (inactive) | > 100 µM (inactive) | > 100 µM (inactive) | > 100 µM (inactive) | > 100 µM (inactive) | > 100 µM (inactive) | > 100 µM (inactive) | > 100 µM (inactive) | > 100 µM (inactive) | > 100 µM (inactive) | > 100 µM (inactive) | > 100 µM | 
CCCCc1c(OC)cc(O)c2c1C(=O)c1[nH]c(C(=O)O)c(O)c(=O)c1C2=O | 0.847 µM (active) | 2.34 µM (inactive) | 22 µM (inactive) | 2.27 µM (inactive) | 5.57 µM (inactive) | 2.12 µM (inactive) | 42.1 µM (inactive) | 1.57 µM (inactive) | 1.56 µM (inactive) | 6.08 µM (inactive) | 4.47 µM (inactive) | 3.19 µM (inactive) | 10.4 µM (inactive) | 5.56 µM (inactive) |  | 19.8 µM (inactive) | 83 µM (inactive) | 23.8 µM | 1.56 µM (inactive)
COC(=O)C1=C2Nc3ccccc3C23CCN2C(O)C4(CC5CC67CCOC6CCN6CCC8(c9cccc(OC)c9N(C4)C58O)C67)C4OCCC4(C1)C23 (centres undefined) | 15.6 µM (inactive) | 52.8 µM (inactive) | > 100 µM (inactive) | 23.5 µM (inactive) | 87.9 µM (inactive) | 36.4 µM (inactive) | > 100 µM (inactive) | 44.2 µM (inactive) | 49.7 µM (inactive) | 79.8 µM (inactive) | > 100 µM (inactive) | 27.2 µM (inactive) | > 100 µM (inactive) | 58.7 µM (inactive) | 56.4 µM (inactive) |  | 62.4 µM (inactive) | > 100 µM | > 100 µM (inactive)
C=C(C)[C@H]1C[C@@H]2O[C@@](O)(/C(C)=C\C(=O)/C=C(/C)C[C@H]3OC(=O)[C@@]24O[C@H]34)[C@@H]1O | > 100 µM (inactive) | > 100 µM (inactive) | > 100 µM (inactive) | > 100 µM (inactive) | > 100 µM (inactive) | > 100 µM (inactive) | > 100 µM (inactive) |  | 25.7 µM (inactive) | > 100 µM (inactive) | > 100 µM (inactive) | > 100 µM (inactive) | > 100 µM (inactive) | > 100 µM (inactive) | > 100 µM (inactive) | > 100 µM (inactive) | > 100 µM (inactive) | > 100 µM | > 100 µM (inactive)
O=C(C/C(=N/O)c1cc(-c2ccccc2)no1)c1ccccc1 | 21.4 µM (inactive) | 33.8 µM (inactive) | > 100 µM (inactive) | 21.7 µM (inactive) | 20.8 µM (inactive) | 18.7 µM (inactive) | > 100 µM (inactive) | 23.8 µM (inactive) | 19.8 µM (inactive) | 38.7 µM (inactive) | 28.7 µM (inactive) | 22.2 µM (inactive) | 79.8 µM (inactive) | > 100 µM (inactive) | 41.4 µM (inactive) | 31.8 µM (inactive) |  | > 100 µM | 29 µM (inactive)
O=CN1CCN(C(=O)c2ccc(Cl)c(Cl)c2)C1=S | 14.6 µM (inactive) | 17.5 µM (inactive) | 20 µM (inactive) | 15 µM (inactive) | 20.7 µM (inactive) | 4.93 µM (inactive) | 7.13 µM (inactive) | 16.1 µM (inactive) | 17.5 µM (inactive) | 13.6 µM (inactive) | 18 µM (inactive) |  | 17.7 µM (inactive) | 16.6 µM (inactive) | 20.5 µM (inactive) | 22.8 µM (inactive) | 19.4 µM (inactive) | 19.3 µM | 24.6 µM (inactive)
